Measurements published in paper PMC8462848, “Quinazolin-4(3H)-one based potential multiple tyrosine kinase inhibitors with excellent cytotoxicity” (Journal of Enzyme Inhibition and Medicinal Chemistry, 2021).

What was measured:
[1] = molecular target: T1, CDK2/CyclinA2 (Homo sapiens, UniProt P24941); test: CDK2 Assay Kit, Kinase-Glo MAX luminescence; type: biochemical; conditions: one experimental data
T1 construct: purchased #79599
Procedure: The CDK2 Assay Kit is designed to measure CDK2/CyclinA2 activity for screening and profiling applications, using Kinase-Glo® MAX as a detection reagent. The CDK2 Assay Kit comes in a convenient 96-well format, with enough purified recombinant CDK2/CyclinA2 enzyme, CDK substrate peptide, ATP and kinase assay buffer for 100 enzyme reactions. […] […] The compounds were diluted in 10% DMSO and 5 μl of the dilution was added to a 50 μl reaction so that the final concentration of DMSO was 1% in all of the reactions. All of the enzymatic reactions were conducted at 30 °C for 40 min. The 50 μl reaction mixture contained 40 mM Tris, pH 7.4, 10 mM MgCl2, 0.1 mg/mL BSA, 1 mM DTT, 10 mM ATP, Kinase substrate and the enzyme (CDK2/CyclinA2). After the enzymatic reaction, 50 μl of Kinase-Glo® MAX Luminescence kinase assay solution was added to each reaction and the plates were incubated for 5 min at room temperature. Luminescence signal was measured using a Bio Tek Synergy 2 microplate reader.
Figure S1. Calculation of the IC20 Values of Protein Kinase Enzyme CDK2 for 2f
* All the kinase IC20 (µM) were calculated according to the above equations.
(1 picture or pasted object on this page, not shown here)

[2] = molecular target: T2, HER2 (Homo sapiens, UniProt P04626); test: HER2 kinase assay kit, Kinase-Glo MAX luminescence; type: biochemical; conditions: for inhibition at 0.01 µM / inhibition at 0.1 µM / inhibition at 1 µM / inhibition at 10 µM: one experimental data; for IC50: mean ± SD of triplicate
T2 construct: purchased #40721
T2 sequence (P04626 23-1255): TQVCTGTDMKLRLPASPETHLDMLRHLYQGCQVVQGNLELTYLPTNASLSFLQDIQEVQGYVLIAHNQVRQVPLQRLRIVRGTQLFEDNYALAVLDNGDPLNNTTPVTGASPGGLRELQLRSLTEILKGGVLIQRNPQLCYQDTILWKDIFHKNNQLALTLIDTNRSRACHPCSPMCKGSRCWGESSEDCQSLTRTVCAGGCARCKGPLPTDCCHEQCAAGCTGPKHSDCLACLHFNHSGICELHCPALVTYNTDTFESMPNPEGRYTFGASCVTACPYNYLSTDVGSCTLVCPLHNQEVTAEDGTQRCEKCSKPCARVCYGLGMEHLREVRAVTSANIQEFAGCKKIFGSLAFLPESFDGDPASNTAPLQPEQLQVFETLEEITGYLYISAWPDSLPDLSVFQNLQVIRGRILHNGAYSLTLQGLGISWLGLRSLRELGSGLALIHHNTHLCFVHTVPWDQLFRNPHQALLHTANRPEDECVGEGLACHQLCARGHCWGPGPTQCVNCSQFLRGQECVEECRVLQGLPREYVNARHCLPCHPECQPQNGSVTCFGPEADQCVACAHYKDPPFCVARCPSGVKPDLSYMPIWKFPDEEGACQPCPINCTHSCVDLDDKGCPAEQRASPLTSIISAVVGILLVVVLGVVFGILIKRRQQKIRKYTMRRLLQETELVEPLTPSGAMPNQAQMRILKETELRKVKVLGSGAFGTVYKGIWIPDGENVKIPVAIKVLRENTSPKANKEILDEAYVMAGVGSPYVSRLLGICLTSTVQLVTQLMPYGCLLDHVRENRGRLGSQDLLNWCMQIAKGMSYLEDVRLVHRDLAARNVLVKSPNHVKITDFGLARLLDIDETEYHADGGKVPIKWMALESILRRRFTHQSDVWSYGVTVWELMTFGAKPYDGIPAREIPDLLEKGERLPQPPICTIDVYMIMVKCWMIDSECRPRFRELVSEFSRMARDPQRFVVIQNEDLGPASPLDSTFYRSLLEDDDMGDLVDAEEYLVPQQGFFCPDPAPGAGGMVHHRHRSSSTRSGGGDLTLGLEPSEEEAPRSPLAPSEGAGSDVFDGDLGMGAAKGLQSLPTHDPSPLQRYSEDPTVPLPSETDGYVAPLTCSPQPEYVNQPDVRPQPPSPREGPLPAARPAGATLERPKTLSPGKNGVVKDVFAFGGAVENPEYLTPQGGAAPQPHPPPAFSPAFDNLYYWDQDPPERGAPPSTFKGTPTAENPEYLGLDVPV
Procedure: (§1) The HER2/EGFR/VEGFR2 assay kit is designed to measure HER2/EGFR/VEGFR-2 inhibitory activity for screening and profiling applications, using Kinase-Glo® MAX as a detection reagent. The HER2/EGFR/VEGFR2 assay kit comes in a convenient 96-well format, with enough purified recombinant HER2/EGFR/VEGFR2 enzyme, HER2/EGFR/VEGFR2 substrate, ATP and kinase buffer 1 for 100 enzyme reactions. […] […] The quinazolin-4(3H)-ones were diluted in 10% DMSO and 5 μl of the dilution was added to a 50 μl reaction so that the final concentration of DMSO was 1% in all of the reactions. All of the enzymatic reactions were conducted at 30 °C for 40 min. The 50 μl reaction mixture contained 40 mM Tris, pH 7.4, 10 mM MgCl2, 0.1 mg/mL BSA, 1 mM DTT, 10 mM ATP, kinase substrate and the enzyme HER2 / EGFR / VEGFR2. After the enzymatic reaction, 50 μl of Kinase-Glo® MAX luminescence kinase assay solution was added to each reaction and the plates were incubated for 5 min at room temperature. Luminescence signal was measured using a Bio Tek Synergy 2 microplate reader (For detail enzyme assay protocol and the results, please see supplementary data).

[3] = molecular target: T1, CDK2/CyclinA2; test: CDK2 Assay Kit, Kinase-Glo MAX luminescence; type: biochemical; conditions: mean ± SD of triplicate
[4] = molecular target: T3, VEGFR2 (Homo sapiens, UniProt P35968); test: VEGFR2 kinase assay kit, Kinase-Glo MAX luminescence; type: biochemical; conditions: for inhibition at 0.01 µM / inhibition at 0.1 µM / inhibition at 1 µM / inhibition at 10 µM: one experimental data, read-out: % Inhibition VEGFR-2; for IC50: mean ± SD of triplicate
T3 construct: purchased #40325
T3 sequence (P35968 20-1356): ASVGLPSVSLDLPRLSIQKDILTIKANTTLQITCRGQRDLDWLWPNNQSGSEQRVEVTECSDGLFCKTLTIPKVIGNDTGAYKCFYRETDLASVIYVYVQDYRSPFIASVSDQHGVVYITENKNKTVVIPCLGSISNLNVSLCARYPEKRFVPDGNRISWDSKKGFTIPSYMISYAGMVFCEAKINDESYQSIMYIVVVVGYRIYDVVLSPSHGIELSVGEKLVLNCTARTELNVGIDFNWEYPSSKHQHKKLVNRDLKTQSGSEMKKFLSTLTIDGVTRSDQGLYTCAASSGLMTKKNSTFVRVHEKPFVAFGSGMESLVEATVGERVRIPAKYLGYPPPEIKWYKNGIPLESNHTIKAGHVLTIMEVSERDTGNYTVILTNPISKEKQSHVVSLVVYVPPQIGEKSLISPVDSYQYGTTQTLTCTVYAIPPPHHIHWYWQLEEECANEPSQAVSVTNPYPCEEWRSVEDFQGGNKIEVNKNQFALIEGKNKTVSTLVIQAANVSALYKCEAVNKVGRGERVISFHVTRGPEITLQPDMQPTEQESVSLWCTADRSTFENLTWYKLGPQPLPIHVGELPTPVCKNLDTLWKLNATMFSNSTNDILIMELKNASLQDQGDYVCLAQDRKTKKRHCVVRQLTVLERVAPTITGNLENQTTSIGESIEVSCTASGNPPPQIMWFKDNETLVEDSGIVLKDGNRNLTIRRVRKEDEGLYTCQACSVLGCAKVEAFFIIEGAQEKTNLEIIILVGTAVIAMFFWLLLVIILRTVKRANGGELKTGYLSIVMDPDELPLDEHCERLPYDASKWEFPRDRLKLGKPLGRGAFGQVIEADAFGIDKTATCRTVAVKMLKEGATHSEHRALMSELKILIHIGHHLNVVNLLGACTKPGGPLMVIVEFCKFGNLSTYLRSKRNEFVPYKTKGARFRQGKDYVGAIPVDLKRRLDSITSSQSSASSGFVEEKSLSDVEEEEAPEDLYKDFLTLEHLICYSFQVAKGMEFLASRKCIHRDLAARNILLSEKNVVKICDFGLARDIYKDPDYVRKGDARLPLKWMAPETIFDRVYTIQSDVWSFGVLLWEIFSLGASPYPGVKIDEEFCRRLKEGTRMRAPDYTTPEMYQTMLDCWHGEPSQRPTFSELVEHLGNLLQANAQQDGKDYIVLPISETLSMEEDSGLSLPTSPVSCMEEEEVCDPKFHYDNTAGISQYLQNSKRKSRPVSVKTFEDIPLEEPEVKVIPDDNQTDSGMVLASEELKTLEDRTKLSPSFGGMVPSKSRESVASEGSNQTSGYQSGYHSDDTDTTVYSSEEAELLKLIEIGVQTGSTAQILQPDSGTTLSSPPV
Procedure: as §1

[5] = tested on: A2780 (human ovary adenocarcinoma) cells; test: MTT cytotoxicity assay, A2780; type: cell-based; conditions: Homo sapiens, A2780, mean ± SD of triplicate
Procedure: (§2) The cytotoxicity of the synthesised quinazolin-4(3H)-ones was evaluated by MTT assay, as previously described. Two cancer cell lines, MCF7 (human breast adenocarcinoma) and A2780 (human ovary adenocarcinoma), were used in this study, which were obtained from the ATCC (Rockville, MD, USA). […] Additionally, compounds were prepared at the same medium to obtain serial dilutions (50, 25, […] and 0.1 µM). […] The media were aspirated, and the formazan crystals were solubilised by adding 150 µL DMSO. Absorbance was read on a multi-plate reader (BioRad) at […]. […] The data were obtained from triplicates and analysed using statistical software.

[6] = tested on: MCF7 (human breast adenocarcinoma) cells; test: MTT cytotoxicity assay, MCF7; type: cell-based; conditions: Homo sapiens, MCF7, mean ± SD of triplicate
Procedure: as §2

[7] = molecular target: T4, EGFR (Homo sapiens, UniProt P00533); test: EGFR kinase assay kit, Kinase-Glo MAX luminescence; type: biochemical; conditions: for inhibition at 0.01 µM / inhibition at 0.1 µM / inhibition at 1 µM / inhibition at 10 µM: one experimental data; for IC50: mean ± SD of triplicate
T4 construct: purchased #40321
T4 sequence (P00533 25-1210): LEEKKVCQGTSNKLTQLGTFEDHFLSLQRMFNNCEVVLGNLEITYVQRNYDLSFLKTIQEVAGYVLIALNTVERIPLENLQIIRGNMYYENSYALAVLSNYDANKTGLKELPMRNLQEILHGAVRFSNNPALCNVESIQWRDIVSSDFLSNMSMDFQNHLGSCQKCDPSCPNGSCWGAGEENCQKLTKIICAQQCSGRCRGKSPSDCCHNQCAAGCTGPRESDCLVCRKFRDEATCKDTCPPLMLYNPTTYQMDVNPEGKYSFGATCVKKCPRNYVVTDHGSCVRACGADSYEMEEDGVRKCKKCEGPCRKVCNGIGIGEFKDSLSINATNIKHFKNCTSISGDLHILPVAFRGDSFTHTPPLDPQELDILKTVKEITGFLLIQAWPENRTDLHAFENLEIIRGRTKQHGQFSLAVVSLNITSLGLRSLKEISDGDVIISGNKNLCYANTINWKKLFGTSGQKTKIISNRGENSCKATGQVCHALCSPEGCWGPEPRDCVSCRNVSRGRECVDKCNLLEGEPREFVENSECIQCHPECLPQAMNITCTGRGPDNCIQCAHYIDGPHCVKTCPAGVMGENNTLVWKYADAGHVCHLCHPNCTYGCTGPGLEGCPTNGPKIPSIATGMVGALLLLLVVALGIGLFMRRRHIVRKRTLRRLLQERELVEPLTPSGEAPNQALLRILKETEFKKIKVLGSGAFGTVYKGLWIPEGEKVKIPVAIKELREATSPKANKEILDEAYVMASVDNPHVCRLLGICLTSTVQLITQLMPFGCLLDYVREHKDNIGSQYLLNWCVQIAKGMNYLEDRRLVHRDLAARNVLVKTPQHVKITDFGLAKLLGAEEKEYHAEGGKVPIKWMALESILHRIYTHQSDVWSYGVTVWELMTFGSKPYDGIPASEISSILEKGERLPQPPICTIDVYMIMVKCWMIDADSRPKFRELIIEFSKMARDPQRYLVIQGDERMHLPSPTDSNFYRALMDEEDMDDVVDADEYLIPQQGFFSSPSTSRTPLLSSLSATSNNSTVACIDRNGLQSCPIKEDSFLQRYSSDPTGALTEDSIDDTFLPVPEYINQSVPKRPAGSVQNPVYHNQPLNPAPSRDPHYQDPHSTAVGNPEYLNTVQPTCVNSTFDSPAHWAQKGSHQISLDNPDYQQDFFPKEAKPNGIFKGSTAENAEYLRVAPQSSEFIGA
Procedure: as §1

inhibition at 0.01 µM [1] | inhibition at 0.1 µM [1] | inhibition at 1 µM [1] | inhibition at 10 µM [1] | inhibition at 0.01 µM [2] | inhibition at 0.1 µM [2] | inhibition at 1 µM [2] | inhibition at 10 µM [2] | IC50 [2] | IC50 [3] | inhibition at 0.01 µM [4] | inhibition at 0.1 µM [4] | inhibition at 1 µM [4] | inhibition at 10 µM [4] | IC50 [4] | melting point | inhibition at 0.01 µM [7] | inhibition at 0.1 µM [7] | Structure (SMILES) | IC50 [5] | IC50 [6] | further results
8.13% | 42.8% | 38.4% | 84% | 2.33% | 39.5% | 72% | 92.2% | 222 ± 12 nM | 473 ± 33 nM | 1.98% | 22.3% | 41.1% | 74.4% | 3085 ± 16 nM | 216 to 220 °C | 18.7% | 48.8% | Cc1cc(Cl)cc2c(=O)n(Cc3ccccc3)c(SCC(=O)NN)nc12 [3j] | 220 ± 30 nM | 200 ± 20 nM | inhibition at 1 µM [7]: 81%; inhibition at 10 µM [7]: 89.9%; IC50 [7]: 371 ± 14 nM
8.38% | 20.7% | 78.2% | 91.4% | 17.3% | 44.2% | 83.5% | 94.4% | 884 ± 16 nM | 444 ± 11 nM | 2.43% | 18.8% | 44.1% | 29.2% | 702 ± 13 nM | 110 to 111 °C | 22.9% | 48.9% | CCOC(=O)CSc1nc2ccc(F)cc2c(=O)n1Cc1ccccc1 [2g, Ethyl 2-((3-benzyl-6-fluoro-4-oxo-3,4-dihydroquinazolin-2-yl)thio)acetate] | 2400 ± 200 nM | 1220 ± 170 nM | inhibition at 1 µM [7]: 80.1%; inhibition at 10 µM [7]: 91.2%; IC50 [7]: 232 ± 30 nM
4.28% | 40.5% | 37.8% | 83.7% | 20.4% | 24.4% | 83.7% | 94.8% | 128 ± 24 nM | 173 ± 12 nM | 8.13% | 31.8% | 20.3% | 77.8% | 2846 ± 14 nM | 104 to 105 °C | 11.8% | 43.7% | CCOC(=O)CSc1nc2cc(OC)c(OC)cc2c(=O)n1Cc1ccccc1 [2i, Ethyl 2-((3-benzyl-6,7-dimethoxy-4-oxo-3,4-dihydroquinazolin-2-yl)thio)acetate] | 1160 ± 100 nM | 2700 ± 160 nM | inhibition at 1 µM [7]: 39.1%; inhibition at 10 µM [7]: 82.3%; IC50 [7]: 97 ± 19 nM
3.74% | 19.9% | 70.2% | 82.1% | 2.73% | 44.4% | 77.3% | 89.8% | 248 ± 23 nM | 257 ± 16 nM | 3.17% | 19.5% | 33.4% | 33.1% | 1370 ± 26 nM | 185 to 186 °C | 8.4% | 38% | NNC(=O)CSc1nc2c(F)cc(F)cc2c(=O)n1Cc1ccccc1 [3h, 2-((3-Benzyl-6,8-difluoro-4-oxo-3,4-dihydroquinazolin-2-yl)thio)acetohydrazide] | 630 ± 160 nM | 840 ± 50 nM | inhibition at 1 µM [7]: 29.2%; inhibition at 10 µM [7]: 87.2%; IC50 [7]: 128 ± 16 nM
4.28% | 40.5% | 37.8% | 83.7% | 12.3% | 47% | 82.4% | 93.5% | 343 ± 15 nM | 862 ± 16 nM | 0.324% | 20.3% | 38.9% | 33.9% | 247 ± 15 nM | 132 to 134 °C | 22.2% | 49.9% | CCOC(=O)CSc1nc2c(C)cc(Cl)cc2c(=O)n1Cc1ccccc1 [2j] | 2680 ± 90 nM | 3790 ± 960 nM | inhibition at 1 µM [7]: 84.3%; inhibition at 10 µM [7]: 90.2%; IC50 [7]: 813 ± 22 nM
